Measurements: PMC5218480 (PLoS ONE, 2017)

Test system: MV-4-11 cells
Assay: Gene expression microarray analysis (Affymetrix PrimeView) and GSEA
Type: cell-based, human
Parameters: RFU PODN (11730768_x_at) / Fold change /veh PODN (11730768_x_at) / RFU LINC00158 (11744669_a_at) / Fold change /veh LINC00158 (11744669_a_at) / RFU DUSP10 (11751237_a_at) / Fold change /veh DUSP10 (11751237_a_at) / RFU ID3 (11757404_x_at) / Fold change /veh ID3 (11757404_x_at) / RFU PLEKHG5 (11737974_s_at) / Fold change /veh PLEKHG5 (11737974_s_at) / RFU LRRC4B (11730491_at) / Fold change /veh LRRC4B (11730491_at) / RFU GIMAP4 (11747438_a_at) / Fold change /veh GIMAP4 (11747438_a_at) / RFU KRT8 (11758183_x_at) / Fold change /veh KRT8 (11758183_x_at) / RFU CNN1 (11734310_a_at) / Fold change /veh CNN1 (11734310_a_at) / RFU VPS37D (11726825_at) / Fold change /veh VPS37D (11726825_at) / RFU C10orf10 (11716522_x_at) / Fold change /veh C10orf10 (11716522_x_at) / RFU KIR2DL2 /// KIR2DL4 /// KIR2DL5A /// KIR2DL5B /// KIR2DS1 /// KIR2DS2 /// KIR2DS3 /// KIR2DS4 /// KIR3DL3 /// KIR3DL3 /// KIR3DS1 (11738374_at) / Fold change /veh KIR2DL2 /// KIR2DL4 /// KIR2DL5A /// KIR2DL5B /// KIR2DS1 /// KIR2DS2 /// KIR2DS3 /// KIR2DS4 /// KIR3DL3 /// KIR3DL3 /// KIR3DS1 (11738374_at) / RFU C1QL1 (11718748_at) / Fold change /veh C1QL1 (11718748_at) / RFU TMPRSS4 (11747572_a_at) / Fold change /veh TMPRSS4 (11747572_a_at) / RFU HAMP (11756126_x_at) / Fold change /veh HAMP (11756126_x_at) / RFU RNFT2 (11725882_a_at) / Fold change /veh RNFT2 (11725882_a_at) / RFU NR4A2 (11747474_a_at) / Fold change /veh NR4A2 (11747474_a_at) / RFU ABCC12 (11746883_a_at) / Fold change /veh ABCC12 (11746883_a_at) / RFU TMEM136 (11760407_x_at) / Fold change /veh TMEM136 (11760407_x_at) / RFU CLDN22 /// WWC2 (11732394_at) / Fold change /veh CLDN22 /// WWC2 (11732394_at) / RFU HLA-DPB1 (11760878_x_at) / Fold change /veh HLA-DPB1 (11760878_x_at) / RFU SPINT1 (11716480_a_at) / Fold change /veh SPINT1 (11716480_a_at) / RFU GAP43 (11754022_s_at) / Fold change /veh GAP43 (11754022_s_at) / RFU A4GNT (11735810_at) / Fold change /veh A4GNT (11735810_at) / RFU PRB3 (11715151_x_at) / Fold change /veh PRB3 (11715151_x_at) / RFU TUBB4B (11761932_at) / Fold change /veh TUBB4B (11761932_at) / RFU CAPN14 (11732068_a_at) / Fold change /veh CAPN14 (11732068_a_at) / RFU TMCC2 (11721928_a_at) / Fold change /veh TMCC2 (11721928_a_at) / RFU IRGQ (11745062_a_at) / Fold change /veh IRGQ (11745062_a_at) / RFU FAM174B (11720279_a_at) / Fold change /veh FAM174B (11720279_a_at) / RFU TMPRSS4 (11748680_a_at) / Fold change /veh TMPRSS4 (11748680_a_at) / RFU FAM212B (11763350_a_at) / Fold change /veh FAM212B (11763350_a_at) / RFU PLEKHG5 (11743358_a_at) / Fold change /veh PLEKHG5 (11743358_a_at) / RFU ZSCAN30 (11745921_a_at) / Fold change /veh ZSCAN30 (11745921_a_at) / RFU CMKLR1 (11741424_a_at) / Fold change /veh CMKLR1 (11741424_a_at) / RFU LOC101060620 /// MAPK8IP1 (11723275_at) / Fold change /veh LOC101060620 /// MAPK8IP1 (11723275_at) / RFU SPTSSB (11747773_x_at) / Fold change /veh SPTSSB (11747773_x_at) / RFU PRSS12 (11739890_at) / Fold change /veh PRSS12 (11739890_at) / RFU BIN1 (11741810_x_at) / Fold change /veh BIN1 (11741810_x_at) / RFU WNT11 (11732464_a_at) / Fold change /veh WNT11 (11732464_a_at) / RFU C10orf10 (11716521_a_at) / Fold change /veh C10orf10 (11716521_a_at) / RFU C5orf56 (11738089_at) / Fold change /veh C5orf56 (11738089_at) / RFU CYB561 (11721691_x_at) / Fold change /veh CYB561 (11721691_x_at) / RFU ANKRD19P (11752326_a_at) / Fold change /veh ANKRD19P (11752326_a_at) / RFU OR2T12 /// OR2T33 /// OR2T8 (11738714_s_at) / Fold change /veh OR2T12 /// OR2T33 /// OR2T8 (11738714_s_at) / RFU VCAN (11748164_a_at) / Fold change /veh VCAN (11748164_a_at) / RFU JSRP1 (11732532_at) / Fold change /veh JSRP1 (11732532_at) / RFU KRTAP10-11 (11738290_x_at) / Fold change /veh KRTAP10-11 (11738290_x_at) / RFU MYO3A (11730013_a_at) / Fold change /veh MYO3A (11730013_a_at) / RFU EBF3 (11725865_a_at) / Fold change /veh EBF3 (11725865_a_at) / RFU CAMK2N1 (11719241_x_at) / Fold change /veh CAMK2N1 (11719241_x_at) / RFU C5orf56 (11738088_a_at) / Fold change /veh C5orf56 (11738088_a_at) / RFU OLFML3 (11715873_a_at) / Fold change /veh OLFML3 (11715873_a_at) / RFU LOC100653217 /// NTM (11731650_a_at) / Fold change /veh LOC100653217 /// NTM (11731650_a_at) / RFU MAPK11 (11762145_a_at) / Fold change /veh MAPK11 (11762145_a_at) / RFU FIZ1 (11724087_x_at) / Fold change /veh FIZ1 (11724087_x_at) / RFU OASL (11726364_x_at) / Fold change /veh OASL (11726364_x_at) / RFU SOX15 (11748057_x_at) / Fold change /veh SOX15 (11748057_x_at) / RFU CD79A (11719716_a_at) / Fold change /veh CD79A (11719716_a_at) / RFU HIST1H1D (11736915_at) / Fold change /veh HIST1H1D (11736915_at) / RFU CASKIN2 (11723855_a_at) / Fold change /veh CASKIN2 (11723855_a_at) / RFU LOC730098 (11760151_x_at) / Fold change /veh LOC730098 (11760151_x_at) / RFU OR4N2 (11742367_at) / Fold change /veh OR4N2 (11742367_at) / RFU PRRT2 (11749266_a_at) / Fold change /veh PRRT2 (11749266_a_at) / RFU SNX32 (11753110_a_at) / Fold change /veh SNX32 (11753110_a_at) / RFU CDHR5 (11726645_a_at) / Fold change /veh CDHR5 (11726645_a_at) / RFU RCAN1 (11760418_a_at) / Fold change /veh RCAN1 (11760418_a_at) / RFU FAM167A (11723789_a_at) / Fold change /veh FAM167A (11723789_a_at) / RFU FAM26E (11764081_at) / Fold change /veh FAM26E (11764081_at) / RFU ISYNA1 (11749810_s_at) / Fold change /veh ISYNA1 (11749810_s_at) / RFU ACY1 (11761880_at) / Fold change /veh ACY1 (11761880_at) / RFU 11764098_at / Fold change /veh 11764098_at / RFU SAMD14 (11745864_x_at) / Fold change /veh SAMD14 (11745864_x_at) / RFU NPB (11741838_a_at) / Fold change /veh NPB (11741838_a_at) / RFU TMPRSS6 (11731388_a_at) / Fold change /veh TMPRSS6 (11731388_a_at) / RFU KRTAP10-2 (11738614_at) / Fold change /veh KRTAP10-2 (11738614_at) / RFU ARHGAP8 /// PRR5-ARHGAP8 (11727945_x_at) / Fold change /veh ARHGAP8 /// PRR5-ARHGAP8 (11727945_x_at) / RFU KRTAP5-7 /// NADSYN1 (11734609_at) / Fold change /veh KRTAP5-7 /// NADSYN1 (11734609_at) / RFU RASL12 (11751679_a_at) / Fold change /veh RASL12 (11751679_a_at) / RFU CDKN2B (11736163_a_at) / Fold change /veh CDKN2B (11736163_a_at) / RFU PRF1 (11729649_at) / Fold change /veh PRF1 (11729649_at) / RFU, ZNF638 /// ZNF638-IT1 / Fold change vs veh, ZNF638 /// ZNF638-IT1 / RFU, PANK3 / Fold change vs veh, PANK3 / RFU, SH3YL1 / Fold change vs veh, SH3YL1 / RFU, ZEB2 / Fold change vs veh, ZEB2 / RFU, NRIP1 / Fold change vs veh, NRIP1 / RFU, PTTG1IP / Fold change vs veh, PTTG1IP / RFU, CAPN2 / Fold change vs veh, CAPN2 / RFU, MED14 / Fold change vs veh, MED14 / RFU, SNORA58 / Fold change vs veh, SNORA58 / RFU, C1orf63 / Fold change vs veh, C1orf63 / RFU, LRRFIP1 / Fold change vs veh, LRRFIP1 / RFU, NDUFAF7 / Fold change vs veh, NDUFAF7 / RFU, SLC12A2 / Fold change vs veh, SLC12A2 / RFU, IBTK / Fold change vs veh, IBTK / RFU, ESF1 / Fold change vs veh, ESF1 / Fold change vs veh, TMEM50B / RFU, TAOK1 / Fold change vs veh, TAOK1 / RFU, ACBD3 / Fold change vs veh, ACBD3 / RFU, TMA16 / Fold change vs veh, TMA16 / RFU, RWDD3 / Fold change vs veh, RWDD3 / RFU, BCAT1 / Fold change vs veh, BCAT1 / RFU, EDEM3 / Fold change vs veh, EDEM3 / RFU, TMEM33 / Fold change vs veh, TMEM33 / RFU, WDR75 / Fold change vs veh, WDR75 / RFU, AHCTF1 / Fold change vs veh, AHCTF1 / RFU, TFRC / Fold change vs veh, TFRC / RFU, ZDHHC17 / Fold change vs veh, ZDHHC17 / RFU, NOM1 / Fold change vs veh, NOM1 / RFU, ARL8B / Fold change vs veh, ARL8B / RFU, ZBTB11 / Fold change vs veh, ZBTB11 / RFU, TAMM41 / Fold change vs veh, TAMM41 / RFU, KIAA1704 /// LOC100996395 / Fold change vs veh, KIAA1704 /// LOC100996395 / RFU, ING1 / Fold change vs veh, ING1 / RFU, TRMT61B / Fold change vs veh, TRMT61B / RFU, FUBP3 / Fold change vs veh, FUBP3 / RFU, TP53 / Fold change vs veh, TP53 / RFU, TNKS2 / Fold change vs veh, TNKS2 / RFU, ZFP14 / Fold change vs veh, ZFP14 / RFU, ACTR2 / Fold change vs veh, ACTR2 / RFU, PPP3R1 / Fold change vs veh, PPP3R1 / RFU, PIK3R1 / Fold change vs veh, PIK3R1 / RFU, HNRNPA1 / Fold change vs veh, HNRNPA1 / RFU, RNF170 / Fold change vs veh, RNF170 / RFU, ZNF28 / Fold change vs veh, ZNF28 / RFU, RNGTT / Fold change vs veh, RNGTT / RFU, OGT / Fold change vs veh, OGT / RFU, BRD1 / Fold change vs veh, BRD1 / RFU, MARS / Fold change vs veh, MARS / RFU, ZNF655 / Fold change vs veh, ZNF655 / RFU, FAHD1 / Fold change vs veh, FAHD1 / RFU, BDP1 / Fold change vs veh, BDP1 / RFU, LRRCC1 / Fold change vs veh, LRRCC1 / RFU, ARID1A / Fold change vs veh, ARID1A / RFU, ZNF146 / Fold change vs veh, ZNF146 / RFU, ZNF330 / Fold change vs veh, ZNF330 / RFU, GPN3 / Fold change vs veh, GPN3 / RFU, C9orf123 / Fold change vs veh, C9orf123 / RFU, N4BP2L2 / Fold change vs veh, N4BP2L2 / RFU, ARFIP1 / Fold change vs veh, ARFIP1 / RFU, FAM179B / Fold change vs veh, FAM179B / RFU, BCL10 / Fold change vs veh, BCL10 / RFU, UHRF1BP1L / Fold change vs veh, UHRF1BP1L / RFU, BET1 / Fold change vs veh, BET1 / RFU, CNOT2 / Fold change vs veh, CNOT2 / RFU, ZNF268 / Fold change vs veh, ZNF268 / Fold change vs veh, ZNF507 / RFU, DGCR2 / Fold change vs veh, DGCR2 / RFU, WDSUB1 / Fold change vs veh, WDSUB1 / Fold change vs veh, HSP90B1 /// MIR3652 / RFU, ADSS / Fold change vs veh, ADSS / RFU, GK / Fold change vs veh, GK / RFU, ZNF148 / Fold change vs veh, ZNF148 / RFU, TAF9 / Fold change vs veh, TAF9 / RFU, SLC1A5 / Fold change vs veh, SLC1A5 / RFU, SLMO2 / Fold change vs veh, SLMO2 / RFU, ABCC4 / Fold change vs veh, ABCC4 / RFU, LOC101060439 /// RAP1B / Fold change vs veh, LOC101060439 /// RAP1B / RFU, RFX7 / Fold change vs veh, RFX7 / RFU, GTPBP10 / Fold change vs veh, GTPBP10 / RFU, CNEP1R1 / Fold change vs veh, CNEP1R1 / RFU, BIVM-ERCC5 /// ERCC5 / Fold change vs veh, BIVM-ERCC5 /// ERCC5 / RFU, ILF3 / Fold change vs veh, ILF3 / RFU 11762660_at / Fold change /veh 11762660_at / RFU VCAN (11757783_s_at) / Fold change /veh VCAN (11757783_s_at) / RFU DDX43 (11728927_at) / Fold change /veh DDX43 (11728927_at) / RFU KRT8 (11758188_x_at) / Fold change /veh KRT8 (11758188_x_at) / RFU NKD1 (11759106_at) / Fold change /veh NKD1 (11759106_at) / RFU SRD5A1 (11742802_a_at) / Fold change /veh SRD5A1 (11742802_a_at) / RFU TPSAB1 /// TPSB2 (11721975_s_at) / Fold change /veh TPSAB1 /// TPSB2 (11721975_s_at) / RFU GSTM3 (11746129_a_at) / Fold change /veh GSTM3 (11746129_a_at) / RFU IL23R (11737362_x_at) / Fold change /veh IL23R (11737362_x_at) / RFU TMEM51 (11727254_a_at) / Fold change /veh TMEM51 (11727254_a_at) / RFU PIWIL2 (11732686_x_at) / Fold change /veh PIWIL2 (11732686_x_at) / RFU ORM1 (11744905_x_at) / Fold change /veh ORM1 (11744905_x_at) / RFU CCDC152 (11743942_at) / Fold change /veh CCDC152 (11743942_at) / RFU ECM1 (11717891_a_at) / Fold change /veh ECM1 (11717891_a_at) / RFU IL23R (11748794_a_at) / Fold change /veh IL23R (11748794_a_at) / RFU TNFAIP8L3 (11732012_x_at) / Fold change /veh TNFAIP8L3 (11732012_x_at) / RFU MBOAT4 (11741988_at) / Fold change /veh MBOAT4 (11741988_at) / RFU 11764193_at / Fold change /veh 11764193_at / RFU TMEM53 (11763286_at) / Fold change /veh TMEM53 (11763286_at) / RFU MAGEB2 (11727129_at) / Fold change /veh MAGEB2 (11727129_at) / RFU TMEM200A (11744735_a_at) / Fold change /veh TMEM200A (11744735_a_at) / RFU CCDC152 (11751479_a_at) / Fold change /veh CCDC152 (11751479_a_at) / RFU FAM211A (11726209_a_at) / Fold change /veh FAM211A (11726209_a_at) / RFU RGS16 (11746705_a_at) / Fold change /veh RGS16 (11746705_a_at) / RFU VCAN (11755009_s_at) / Fold change /veh VCAN (11755009_s_at) / RFU RHOB (11743442_s_at) / Fold change /veh RHOB (11743442_s_at) / RFU RGS16 (11720943_a_at) / Fold change /veh RGS16 (11720943_a_at) / RFU RGS16 (11720944_at) / Fold change /veh RGS16 (11720944_at) / RFU, VPS4B / Fold change vs veh, VPS4B / RFU, CREB1 / Fold change vs veh, CREB1 / RFU, DNAJC13 / Fold change vs veh, DNAJC13 / RFU, GNAQ / Fold change vs veh, GNAQ / RFU, CDK5R1 / Fold change vs veh, CDK5R1 / RFU, ZRANB3 / Fold change vs veh, ZRANB3 / RFU, CUL4A / Fold change vs veh, CUL4A / RFU, CCNY / Fold change vs veh, CCNY / RFU, UFL1 / Fold change vs veh, UFL1 / RFU, COG3 / Fold change vs veh, COG3 / RFU, DIAPH2 / Fold change vs veh, DIAPH2 / RFU, SKA2 / Fold change vs veh, SKA2 / RFU, AFF3 / Fold change vs veh, AFF3 / RFU, LMF1 / Fold change vs veh, LMF1 / RFU, IPO11 / Fold change vs veh, IPO11 / RFU, DFFB / Fold change vs veh, DFFB / RFU, FOXP1 / Fold change vs veh, FOXP1 / RFU, CARD8 / Fold change vs veh, CARD8 / RFU, STRN3 / Fold change vs veh, STRN3 / RFU, ADK / Fold change vs veh, ADK / RFU, RASSF2 / Fold change vs veh, RASSF2 / RFU, WIPF1 / Fold change vs veh, WIPF1 / RFU, LARP1B / Fold change vs veh, LARP1B / RFU, RASA1 / Fold change vs veh, RASA1 / RFU, RB1 / Fold change vs veh, RB1 / RFU, PPFIA1 / Fold change vs veh, PPFIA1 / RFU, MAT2A / Fold change vs veh, MAT2A / RFU, CCT5 / Fold change vs veh, CCT5 / RFU, WDR92 / Fold change vs veh, WDR92 / RFU, CUX1 / Fold change vs veh, CUX1 / RFU, TTC7A / Fold change vs veh, TTC7A / RFU, TMEM135 / Fold change vs veh, TMEM135 / RFU, DEPTOR / Fold change vs veh, DEPTOR / RFU, CPM / Fold change vs veh, CPM / RFU, DNAJB6 / Fold change vs veh, DNAJB6 / RFU, CACNA2D3 / Fold change vs veh, CACNA2D3 / RFU, DTX4 / Fold change vs veh, DTX4 / RFU, TFCP2 / Fold change vs veh, TFCP2 / RFU, GMCL1 /// GMCL1P1 / Fold change vs veh, GMCL1 /// GMCL1P1 / RFU, AEBP2 / Fold change vs veh, AEBP2 / RFU, SNHG1 /// SNORD22 /// SNORD25 /// SNORD26 /// SNORD27 /// SNORD28 /// SNORD29 /// SNORD31 / Fold change vs veh, SNHG1 /// SNORD22 /// SNORD25 /// SNORD26 /// SNORD27 /// SNORD28 /// SNORD29 /// SNORD31 / Fold change (Aza/veh), C12orf56 (ProbeSet 11735607_a_at) / Fold change (ACY-1035/veh), C12orf56 (ProbeSet 11735607_a_at) / Fold change (Aza/veh), FGFR1OP (ProbeSet 11751329_s_at) / Fold change (ACY-1035/veh), FGFR1OP (ProbeSet 11751329_s_at) / Fold change (Aza/veh), VPS36 (ProbeSet 11739960_a_at) / Fold change (ACY-1035/veh), VPS36 (ProbeSet 11739960_a_at) / RFU SYPL1 (11715823_x_at) / Fold change /veh SYPL1 (11715823_x_at) / RFU IGFBP7 (11715501_s_at) / Fold change /veh IGFBP7 (11715501_s_at) / RFU REEP3 (11722064_at) / Fold change /veh REEP3 (11722064_at) / RFU IGLL1 (11728026_x_at) / Fold change /veh IGLL1 (11728026_x_at): dose or concentration left out as unconfirmed
Conditions: MV-4-11 cells, 48 hours

For `Nc1ncn([C@@H]2O[C@H](CO)[C@@H](O)[C@H]2O)c(=O)n1` [azacitidine], which “RFU SRD5A1 (11742802_a_at)” value is on record?
The value was 51.32 RFU.
